ChEMBL document CHEMBL1151707, “Novel 3-phenylpropane-1,2-diamine derivates as inhibitors of aminopeptidase N (APN)” (Bioorg Med Chem, 2008)

Assays:
[1] = target: T1, Aminopeptidase N (Sus scrofa, UniProt P15145); experiment: Inhibition of pig kidney microsome aminopeptidase N by UV-visible spectrophotometer
T1 sequence (P15145 whole entry): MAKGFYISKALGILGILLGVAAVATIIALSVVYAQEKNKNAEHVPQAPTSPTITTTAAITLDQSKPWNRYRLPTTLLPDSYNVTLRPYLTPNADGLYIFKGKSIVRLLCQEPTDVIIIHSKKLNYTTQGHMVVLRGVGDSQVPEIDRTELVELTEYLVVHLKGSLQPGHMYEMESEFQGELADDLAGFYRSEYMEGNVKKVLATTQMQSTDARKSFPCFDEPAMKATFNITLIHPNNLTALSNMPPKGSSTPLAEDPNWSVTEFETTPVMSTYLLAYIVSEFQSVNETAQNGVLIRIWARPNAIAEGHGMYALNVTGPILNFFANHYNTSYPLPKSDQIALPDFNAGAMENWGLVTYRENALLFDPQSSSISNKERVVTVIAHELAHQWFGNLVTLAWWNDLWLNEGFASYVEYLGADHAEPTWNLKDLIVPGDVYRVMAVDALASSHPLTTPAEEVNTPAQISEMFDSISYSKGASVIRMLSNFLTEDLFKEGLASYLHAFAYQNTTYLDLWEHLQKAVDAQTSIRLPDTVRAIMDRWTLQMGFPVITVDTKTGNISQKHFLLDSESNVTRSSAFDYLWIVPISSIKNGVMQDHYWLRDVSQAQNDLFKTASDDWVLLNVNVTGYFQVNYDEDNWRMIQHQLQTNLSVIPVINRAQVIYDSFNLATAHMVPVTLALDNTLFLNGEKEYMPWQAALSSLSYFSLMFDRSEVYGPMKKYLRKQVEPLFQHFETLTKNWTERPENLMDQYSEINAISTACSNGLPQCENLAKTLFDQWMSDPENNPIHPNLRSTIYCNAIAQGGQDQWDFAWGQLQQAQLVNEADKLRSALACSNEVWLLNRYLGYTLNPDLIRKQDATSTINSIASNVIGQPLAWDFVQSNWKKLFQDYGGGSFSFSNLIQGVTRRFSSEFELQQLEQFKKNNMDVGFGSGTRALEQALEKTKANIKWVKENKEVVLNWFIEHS

[2] = target: 72 kDa type IV collagenase (Homo sapiens, UniProt P08253); experiment: Inhibition of MMP2
[3] = system: HL-60; experiment: Antiproliferative activity against human HL-60 cells after 48 hrs by MTT assay; format: functional, cell-based; conditions: HL-60, 48 h

Chain of 72 kDa type IV collagenase (P08253 whole entry): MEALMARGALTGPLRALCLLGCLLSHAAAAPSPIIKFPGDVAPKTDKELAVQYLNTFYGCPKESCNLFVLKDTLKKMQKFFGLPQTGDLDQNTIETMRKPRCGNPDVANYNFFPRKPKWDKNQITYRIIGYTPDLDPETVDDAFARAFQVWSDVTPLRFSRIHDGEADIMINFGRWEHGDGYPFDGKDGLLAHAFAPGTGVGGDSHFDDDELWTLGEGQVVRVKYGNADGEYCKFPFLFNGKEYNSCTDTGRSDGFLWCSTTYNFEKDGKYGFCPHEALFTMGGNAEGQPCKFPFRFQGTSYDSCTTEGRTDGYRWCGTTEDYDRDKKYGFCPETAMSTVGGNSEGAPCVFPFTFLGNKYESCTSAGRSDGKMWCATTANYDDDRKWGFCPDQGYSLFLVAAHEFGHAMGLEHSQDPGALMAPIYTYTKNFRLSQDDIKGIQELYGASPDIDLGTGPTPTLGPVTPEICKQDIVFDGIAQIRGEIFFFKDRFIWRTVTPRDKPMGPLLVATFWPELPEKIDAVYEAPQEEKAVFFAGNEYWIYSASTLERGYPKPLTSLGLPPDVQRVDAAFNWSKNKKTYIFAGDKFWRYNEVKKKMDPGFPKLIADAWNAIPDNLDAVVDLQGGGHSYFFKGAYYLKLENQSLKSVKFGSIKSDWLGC

| IC50 [1] [µM] | IC50 [2] [µM] | IC50 [3] [µM] | Compound |
| --- | --- | --- | --- |
| > 1000 | 772 |  | C[C@H](N)C(=O)NC[C@H](N)Cc1ccccc1 |
| 409 | 11.2 |  | NCCC(=O)NC[C@H](N)Cc1ccccc1 |
| 290 | 547 |  | N[C@@H](CNC(=O)CCc1ccccc1)Cc1ccccc1 |
| 164 | 99.7 |  | NCCCCCC(=O)NC[C@H](N)Cc1ccccc1 |
| 33.7 | 202 |  | N[C@@H](CNC(=O)[C@@H](N)CO)Cc1ccccc1 |
| > 1000 | 23.5 |  | NCC(=O)NC[C@H](N)Cc1ccccc1 |
| > 1000 | 632 |  | N[C@@H](CNC(=O)Cc1ccccc1)Cc1ccccc1 |
| 15.5 | 183 | 630 | N[C@@H](CNC(=O)[C@H](Cc1ccccc1)NC(=O)[C@@H](N)Cc1ccccc1)Cc1ccccc1 |
| 596 | 211 |  | N[C@@H](CNC(=O)/C=C/c1ccccc1)Cc1ccccc1 |
| > 1000 | 221 |  | N[C@@H](CNC(=O)CCCc1ccccc1)Cc1ccccc1 |
| > 1000 | > 1000 |  | N[C@@H](CNC(=O)Cc1ccccc1Nc1c(Cl)cccc1Cl)Cc1ccccc1 |
| 21.1 | 78.8 | 1090 | N[C@@H](CNC(=O)[C@@H](N)CS)Cc1ccccc1 |

The remaining lines, values behind:

| Compound | IC50 [1] [µM] | IC50 [2] [µM] | IC50 [3] [µM] |
| --- | --- | --- | --- |
| NC(=O)CC[C@H](N)C(=O)NC[C@H](N)Cc1ccccc1 | > 1000 | 802 |  |
| NCCCC[C@H](N)C(=O)NC[C@H](N)Cc1ccccc1 | 164 | 99.7 |  |
| NCCC[C@H](N)C(=O)NC[C@H](N)Cc1ccccc1 | 50.5 | 219 |  |
| CC(C)C[C@H](NC(=O)[C@@H](O)[C@H](N)Cc1ccccc1)C(=O)O [UBENIMEX] |  | 162 |  |
| CSCC[C@H](N)C(=O)NC[C@H](N)Cc1ccccc1 | 119 | 112 |  |
| CC(C)C[C@H](N)C(=O)NC[C@H](N)Cc1ccccc1 | 142 | 170 |  |
| N[C@@H](CNC(=O)/C=C/c1ccc(O)c(O)c1)Cc1ccccc1 | 492 | 329 |  |
| CC(C)[C@H](N)C(=O)NC[C@H](N)Cc1ccccc1 | 476 | 151 |  |
| N[C@@H](CNC(=O)c1cc([N+](=O)[O-])cc([N+](=O)[O-])c1)Cc1ccccc1 | 204 | 101 |  |
